Experimental data: patent US6596500B1, “Binding of retinoids to M6P/IGF-II receptor” (The General Hospital Corporation, priority 1998, dated 2003)
“Also recorded” adds a separate entry of the source.

Tests used:
[1] = molecular target: T1, M6P/IGF2R (300 kDa protein) (Rattus norvegicus, UniProt G3V824); assay: [3H]RA photoaffinity labeling of the 300 kDa protein; type: binding; details: for Inhibition of [3H]RA photolabeling/binding to M6P/IGF2R by nonradioactive competitor: 25- to 50-fold molar excess (50 μM) competitor added before photolysis
T1 construct: about 100 μg of proteins of membrane preparations or serum; from tissue; host or cells: membrane preparations of cultured neonatal Sprague-Dawley rat cardiac myocytes
T1 sequence (G3V824 36-2481): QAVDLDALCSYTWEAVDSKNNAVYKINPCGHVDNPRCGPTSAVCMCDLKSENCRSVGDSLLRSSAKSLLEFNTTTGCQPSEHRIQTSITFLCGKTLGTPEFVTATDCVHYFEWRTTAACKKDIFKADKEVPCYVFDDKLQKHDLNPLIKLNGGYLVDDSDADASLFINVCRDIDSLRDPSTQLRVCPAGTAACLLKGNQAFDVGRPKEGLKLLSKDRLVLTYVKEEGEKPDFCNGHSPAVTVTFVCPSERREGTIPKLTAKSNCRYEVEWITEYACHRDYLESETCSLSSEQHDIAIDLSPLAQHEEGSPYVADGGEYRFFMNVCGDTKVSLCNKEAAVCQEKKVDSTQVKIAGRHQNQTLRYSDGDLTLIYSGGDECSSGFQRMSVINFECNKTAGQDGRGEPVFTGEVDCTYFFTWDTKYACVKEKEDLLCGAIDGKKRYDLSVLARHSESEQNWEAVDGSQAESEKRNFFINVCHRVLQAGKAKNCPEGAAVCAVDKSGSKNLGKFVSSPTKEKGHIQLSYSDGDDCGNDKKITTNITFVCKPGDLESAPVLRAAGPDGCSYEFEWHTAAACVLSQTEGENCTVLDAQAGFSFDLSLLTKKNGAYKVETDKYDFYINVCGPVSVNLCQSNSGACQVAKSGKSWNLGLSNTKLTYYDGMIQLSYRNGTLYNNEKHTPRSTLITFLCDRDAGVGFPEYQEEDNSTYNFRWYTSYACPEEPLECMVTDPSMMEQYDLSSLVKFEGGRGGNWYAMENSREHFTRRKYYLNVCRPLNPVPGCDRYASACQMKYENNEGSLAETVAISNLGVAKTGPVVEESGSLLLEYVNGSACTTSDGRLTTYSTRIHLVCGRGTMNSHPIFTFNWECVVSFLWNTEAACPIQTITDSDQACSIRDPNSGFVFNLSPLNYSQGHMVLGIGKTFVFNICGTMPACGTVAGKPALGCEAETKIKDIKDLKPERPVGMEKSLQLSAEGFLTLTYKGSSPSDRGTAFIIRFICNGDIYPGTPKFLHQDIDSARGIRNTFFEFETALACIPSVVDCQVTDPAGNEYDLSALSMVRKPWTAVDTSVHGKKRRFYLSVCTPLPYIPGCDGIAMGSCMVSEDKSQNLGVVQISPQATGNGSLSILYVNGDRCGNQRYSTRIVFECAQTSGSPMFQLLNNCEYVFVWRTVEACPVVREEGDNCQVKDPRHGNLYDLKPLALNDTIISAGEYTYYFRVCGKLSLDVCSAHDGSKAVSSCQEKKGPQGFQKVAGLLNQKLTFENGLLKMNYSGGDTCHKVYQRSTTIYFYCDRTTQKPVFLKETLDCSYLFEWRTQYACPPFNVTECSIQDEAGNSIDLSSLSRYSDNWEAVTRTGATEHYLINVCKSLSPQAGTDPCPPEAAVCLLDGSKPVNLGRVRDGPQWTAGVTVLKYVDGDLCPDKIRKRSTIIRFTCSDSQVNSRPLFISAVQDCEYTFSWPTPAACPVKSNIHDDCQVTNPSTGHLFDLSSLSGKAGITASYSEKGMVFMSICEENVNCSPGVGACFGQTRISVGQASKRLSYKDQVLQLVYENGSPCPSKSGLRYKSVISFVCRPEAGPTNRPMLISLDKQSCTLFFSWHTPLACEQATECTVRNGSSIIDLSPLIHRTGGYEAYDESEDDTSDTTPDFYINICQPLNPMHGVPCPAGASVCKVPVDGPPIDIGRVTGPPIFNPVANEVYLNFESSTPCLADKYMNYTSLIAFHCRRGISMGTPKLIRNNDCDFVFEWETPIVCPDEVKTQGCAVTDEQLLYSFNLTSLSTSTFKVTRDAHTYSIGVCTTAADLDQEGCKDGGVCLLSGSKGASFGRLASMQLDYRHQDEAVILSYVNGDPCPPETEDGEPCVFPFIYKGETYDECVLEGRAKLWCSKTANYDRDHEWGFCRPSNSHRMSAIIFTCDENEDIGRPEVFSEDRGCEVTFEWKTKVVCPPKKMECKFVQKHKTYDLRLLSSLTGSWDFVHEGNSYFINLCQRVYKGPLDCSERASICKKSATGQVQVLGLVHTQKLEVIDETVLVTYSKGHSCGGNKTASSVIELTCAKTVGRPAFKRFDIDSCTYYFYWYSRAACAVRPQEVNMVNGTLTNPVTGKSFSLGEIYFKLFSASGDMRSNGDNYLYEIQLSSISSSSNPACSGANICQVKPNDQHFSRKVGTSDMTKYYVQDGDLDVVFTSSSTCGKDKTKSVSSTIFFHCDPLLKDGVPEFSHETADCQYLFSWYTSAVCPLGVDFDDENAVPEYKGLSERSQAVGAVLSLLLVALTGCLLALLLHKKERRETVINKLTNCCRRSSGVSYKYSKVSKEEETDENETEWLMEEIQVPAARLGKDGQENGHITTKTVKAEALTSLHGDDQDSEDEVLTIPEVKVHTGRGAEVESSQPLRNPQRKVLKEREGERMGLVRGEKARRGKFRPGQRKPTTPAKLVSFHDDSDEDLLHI
Procedure: Photoaffinity Labeling Photoaffinity labeling was performed essentially according to the methods described in Bernstein et al., 1995, Proc. Natl. Acad. Sci. USA 92:654-658. […] After the ethanol has been evaporated with nitrogen, about 100 μg of proteins of membrane preparations or serum [serum proteins were first concentrated using a Biomax-100K Centrifugal Filter Device (Millipore)] were then added to each tube. The final volume was adjusted to 100 μl with 50 mM Tris buffer (pH 7.4) containing protease inhibitors (5 mM EDTA, 5 mM EGTA, 0.1 mM phenylmethylsulfonyl fluoride, 0.05% NaN3, 20 μg/ml aprotinin, 10 μg/ml benzamidine and 12.5 μg/ml chymostatin) and 50 μM butylated hydroxytoluene (a radical scavenger, used to minimize the non-specific labeling) for a final concentration of 1 μM labeled retinoic acid. The samples were incubated at room temperature with agitation for 1 hour in the dark. The samples were exposed to an intense 365-nm UV light source (Model B 100AP, UPland, CA) for 7 min. […] To remove the non-covalently bound ligands, the photolabeled samples were extracted with chloroform/methanol (2:1), or washed once by centrifugation for membrane samples only).
Fluorography The resultant protein pellets were dissolved in SDS sample buffer containing 5% β-mercapto-ethanol and heated at 100° C. for 5 min. These samples were then run on 7% polyacrylamide gels (30:0.2, acrylamide/bisacrylamide ratio), using conventional SDS/PAGE techniques. After electrophoresis, the gels were stained with Coomassie blue, soaked in Amplifier (Amersham, Life Science) for 30 minutes, dried by a vacuum gel dryer and then exposed to Hyperfilm-TM X-ray films (Amersham, Life Science) at […] for 1-3 days.

[2] = molecular target: T2, M6P/IGF-II receptor (Rattus norvegicus, UniProt G3V824); assay: Endocytosis of exogenous β-glucuronidase in cultured cardiac myocytes; type: cell-based
T2 construct: cultured neonatal rat cardiac myocytes, which were known to express high levels of the M6P/IGF-II receptor; endogenous in cells; host or cells: primary neonatal rat cardiac myocytes
T2 sequence (G3V824 36-2481): as above
Procedure: FIG. 4 is a histogram summarizing data on the effect of RA on the endocytosis of exogenous β-glucuronidase. Myocytes were incubated for 2 h at 37°0 C. with 1 ml of MEM containing 10,000 units of human β-glucuronidase, and with or without 5 mM mannose 6-phosphate, in the presence or absence of 2 μM RA. Following the incubation, the internalized human β-glucuronidase was determined as described in the Methods.
The primary functions of the Man-6-P/IGF-II receptor are to mediate endocytosis of extracellular M6P-containing proteins (e.g. lysosomal enzymes) and IGF-II and to sort newly synthesized lysosomal enzymes. Therefore, an important question raised by the direct interaction of RA with M6P/IGF2R is whether RA influences these functions of the receptor. To answer this question, we examined the effect of RA on endocytosis of exogenous β-glucuronidase and ^125I-IGF-II and intracellular activity of acid phosphatase in cultured neonatal rat cardiac myocytes, which were known to express high levels of the M6P/IGF-II receptor (Nissley et al., 1993, Mol. Reprod. Dev. 35:408-413). […] This indicated an increased sorting of lysosomal enzymes) (FIGS. 4-6). […]
Endocytosis of extracellular β-glucuronidase was determined as described by Kyle et al., 1988, J. Biol. Chem. 263:16230-16235. […]

[3] = test system: P388D1 cells; assay: Morphology, growth and apoptosis of P388D1 cells overexpressing M6P/IGF2R; type: cell-based, mouse; details: for Cell morphology: 1 μM RA for 24 hours
Procedure: FIG. 10 is a graph showing the effect of RA treatment on growth rate of P388D1 cells overexpressing M6P/IGF2R protein and P388D1 controls. Open circles, vector control cells without RA treatment; closed circles, vector control cells with 1 μM RA treatment; open triangles, overexpressing cells without RA treatment; closed triangles overexpressing cells with 1 μM RA treatment.
We examined M6P/IGF2R-mediated effects of RA in mouse macrophage P388D1 cells, which are the best characterized cells that lack the M6P/IGF2R protein.

Q: What does the source list for `CC1=C(/C=C/C(C)=C/C=C/C(C)=C/C(=O)O)C(C)(C)CCC1` [RA, all-trans-retinoic acid]?
A: Inhibition of [3H]RA photolabeling/binding to M6P/IGF2R by nonradioactive competitor [1]: the radiolabel at the 300 kDa protein was lost; also recorded: inhibited the binding; Inhibition of [3H]RA photolabeling/binding to M6P/IGF2R by nonradioactive competitor ([1]; listed as all-trans-retinoic acid): abolished the labeling; Photoaffinity labeling of protein by [3H]RA ([1]; incubation with [3H]RA followed by photolysis): labeling of a doublet protein at 300 kDa; also recorded: intensively photolabeled; Effects of RA on endocytosis, IGF-II internalization and acid phosphatase with protein synthesis inhibitor ([2]; RA 2 μM plus 0.5 mM cycloheximide): not altered; M6P-inhibitable endocytosis of β-glucuronidase ([2]; RA 2 μM, 2 h at 37° C.): almost doubled; Cell morphology ([3]; P388D1 cells overexpressing M6P/IGF2R): remarkable changes in cell morphology; Cell morphology ([3]; control P388D1 cells transformed with vector alone): no such changes; Cell growth (proliferation) ([3]; 1 μM RA, P388D1 cells overexpressing M6P/IGF2R): grew much more slowly; Apoptotic cells (fluorescence staining of fragmented DNA) ([3]; RA, overexpressing P388D1 cells vs controls): much higher number of apoptotic cells
